Experimental data published in patent US10010076B2, “Plant control composition containing peptide enhancing agent” (Arch Chemicals, Inc., priority 2013, dated 2018).

Legend:
Eurasian watermilfoil = Eurasian watermilfoil aquaria trial, biomass 4 weeks after treatment; details: 8 hr exposure
Aphanizomenon sp. = assay: Toxicity experiment on algae in Morrison Lake site water, cell density of Aphanizomenon sp.; assay type: cell-based
Experimental: (§1) Five formulations were prepared and tested. The formulations included various pesticides used singularly, a protein surfactant blend used singularly, and pesticides used in combination with a protein surfactant blend. The tests were conducted on cyanophyta (blue-green algae) sampled from Morrison Lake located in Ionia County, Mich. The properties that were tested included the chlorophyll-a concentrations, cell densities, visual observations, and partial application label rates of chelated elemental copper and sodium carbonate peroxyhydrate. The initial chlorophyll-a concentration was determined to be 27.4 μg chlorophyll a/L. The initial water characteristics are listed in table 1. […]
(§2) The formulation tested was sodium carbonate peroxyhydrate and the exposure period was 10 days.
(§3) The algae were exposed to three concentrations in 500 mL flasks. The experiments were initiated using 300 mL of site water. The toxicity experiment was initiated by exposing the algae to 7.4, 22.1, and 36.9 mg sodium carbonate peroxyhydrate/L. Three replicates of each exposure concentration, along with three replicates of untreated controls, were tested. […]

[1] = tested on: cyanophyta (blue-green algae); assay: Toxicity experiment on algae in Morrison Lake site water (chlorophyll-a, visual observations, total algae cell density); assay type: cell-based
Experimental: as §1, §2, §3

Anabaena sp. = assay: Toxicity experiment on algae in Morrison Lake site water, cell density of Anabaena sp.; assay type: cell-based
Experimental: as §1, §2, §3

Row | SMILES | regrowth of Eurasian watermilfoil (Eurasian watermilfoil; 0.1 mg ai/L, 2 WAT) | injury to Eurasian watermilfoil (Eurasian watermilfoil; 0.1 mg ai/L, initial) | reducing Eurasian watermilfoil biomass (Eurasian watermilfoil; 0.2 mg ai/L, 4 WAT) | Avg. Day 4 Cell Density, Aphanizomenon sp. (Aphanizomenon sp.; 7.4 mg/L (20 lbs/acre-ft)) | Avg. Day 10 Cell Density, Aphanizomenon sp. (Aphanizomenon sp.; 7.4 mg/L (20 lbs/acre-ft)) | Avg. Day 4 Cell Density, Aphanizomenon sp. (Aphanizomenon sp.; 22.1 mg/L (60 lbs/acre-ft)) | Avg. Day 4 Chlorophyll-a ([1]; 7.4 mg/L (20 lbs/acre-ft)) [µg/L] | Avg. Day 10 Chlorophyll-a ([1]; 7.4 mg/L (20 lbs/acre-ft)) [µg/L] | Avg. Day 4 Chlorophyll-a ([1]; 22.1 mg/L (60 lbs/acre-ft)) [µg/L] | Avg. Day 10 Cell Density, Total algae ([1]; 22.1 mg/L (60 lbs/acre-ft)) | Avg. Day 10 Chlorophyll-a ([1]; 22.1 mg/L (60 lbs/acre-ft)) [µg/L] | Avg. Day 4 Cell Density, Total algae ([1]; 36.9 mg/L (100 lbs/acre-ft)) | Avg. Day 4 Chlorophyll-a ([1]; 36.9 mg/L (100 lbs/acre-ft)) [µg/L] | Avg. Day 10 Cell Density, Total algae ([1]; 36.9 mg/L (100 lbs/acre-ft)) | Avg. Day 10 Chlorophyll-a ([1]; 36.9 mg/L (100 lbs/acre-ft)) [µg/L] | concentration of sodium carbonate peroxyhydrate needed for algae control ([1]; sodium carbonate peroxyhydrate applied alone) [ppm] | Avg. Day 4 Cell Density, Anabaena sp. (Anabaena sp.; 7.4 mg/L (20 lbs/acre-ft)) | Avg. Day 10 Cell Density, Anabaena sp. (Anabaena sp.; 7.4 mg/L (20 lbs/acre-ft)) | Avg. Day 4 Cell Density, Anabaena sp. (Anabaena sp.; 22.1 mg/L (60 lbs/acre-ft))
1 | CCOC(=O)C(Cl)Cc1cc(-n2nc(C)n(C(F)F)c2=O)c(F)cc1Cl (stereo not shown) [Carfentrazone-ethyl, Ethyl 2-chloro-3-[2-chloro-4-fluoro-5-[4-(difluoromethyl)-4,5-dihydro-3-methyl-5-oxo-1H-1,2,4-trizol-1-yl)phenyl]propanoate] | regrowth was noted | initial injury observed | effective at reducing Eurasian watermilfoil biomass | – | – | – | – | – | – | – | – | – | – | – | – | – | – | – | –
2 | O=C([O-])[O-].O=C([O-])[O-].OO.OO.OO.[Na+].[Na+].[Na+].[Na+] [Sodium Carbonate Peroxyhydrate, sodium carbonate peroxyhydrate] | – | – | – | 1.1 × 10^3 cells/mL | 2.8 × 10^4 cells of/mL | 6.5 × 10^4 cells/mL | 22.5 | 8.6 | 12.5 | <1 × 10^3 cells of/mL | 2.7 | <1 × 10^3 cells/mL | 7.9 | <1 × 10^3 cells of/mL | <2 | 22.7 | 8.9 × 10^4 cells/mL | 4.1 × 10^4 cells of/mL | 1.8 × 10^4 cells/mL
